The series concerns rodent carcinogenicity bioassays, tumor incidence. The experiment in a line: CCRIS carcinogenicity studies. An outline of the steps: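 NCI-built, expert-reviewed records of carcinogenicity and related test outcomes (mutagenicity, tumor promotion/inhibition) compiled from published and report sources, historical span 1985-2011, not updated.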

The results in this text go back to PubChem BioAssay AID1259411 (Chemical Carcinogenesis Research Information System (CCRIS), 2018).

Active and inactive are the calls of the source. The rule behind the calls is not given here.

With `C=CCCl`, the carcinogen call by setting is: (Species: MOUSE, Strain/Sex: B6C3F1/FEMALE, Route: GAVAGE, Dose: 0, 129, 258 MG/KG IN CORN OIL 5 D/WK FOR 78 (STUDY DURATION: 92 WK), Dose: 0, 129, 258 MG/KG IN CORN OIL 5 D/WK FOR 78 (STUDY DURATION: 92 WK), Tumor Site: Type of Lesion: FORESTOMACH: SQUAMOUS CELL CARCINOMA OR PAPILLOMA) “equivocal”; (Species: MOUSE, Strain/Sex: B6C3F1/MALE, Route: GAVAGE, Dose: 0, 172, 199 MG/KG IN CORN OIL 5 D/WK FOR 78 (STUDY DURATION: 92 WK), Dose: 0, 172, 199 MG/KG IN CORN OIL 5 D/WK FOR 78 (STUDY DURATION: 92 WK), Tumor Site: Type of Lesion: FORESTOMACH: SQUAMOUS CELL CARCINOMA) “equivocal”; (Species: RAT, Strain/Sex: OSBORNE-MENDEL/FEMALE, Route: GAVAGE, Dose: 0, 55, 73 MG/KG N CORN OIL 5 D/WK FOR 78 (STUDY DURATION: 108-111 WK), Dose: 0, 55, 73 MG/KG N CORN OIL 5 D/WK FOR 78 (STUDY DURATION: 108-111 WK)) “inactive; negative”; (Species: RAT, Strain/Sex: OSBORNE-MENDEL/MALE, Route: GAVAGE, Dose: 0, 57, 77 MG/KG IN CORN OIL 5 D/WK FOR 78 (STUDY DURATION: 108-111 WK), Dose: 0, 57, 77 MG/KG IN CORN OIL 5 D/WK FOR 78 (STUDY DURATION: 108-111 WK)) “inactive; negative”.
Regarding `CC(=O)[C@H]1CC[C@H]2[C@@H]3CCC4=CC(=O)CC[C@]4(C)[C@H]3CC[C@]12C`, the carcinogen call (Species: MOUSE, Route: SUBCUTANEOUS, Tumor Site: Type of Lesion: MAMMARY GLAND, OVARIES, UTERUS, Tumor Site: Type of Lesion: MAMMARY GLAND, OVARIES, UTERUS) was “active; positive”.
On to `C=CN(CC)N=O`, for which the carcinogen call (Species: HAMSTER, Strain/Sex: SYRIAN/FEMALE, Route: SUBCUTANEOUS, Dose: 0.63-5 MG/KG IN OLIVE OIL 1/WK FOR LIFE, Tumor Site: Type of Lesion: NASAL CAVITY: PAPILLOMA, EPIDERMOID CARCINOMA, ADENOCARCINOMA, LARYNX: PAPILLOMA, EPIDERMOID CARCINOMA, TRACHEA: PAPILLO, Tumor Site: Type of Lesion: NASAL CAVITY: PAPILLOMA, EPIDERMOID CARCINOMA, ADENOCARCINOMA, LARYNX: PAPILLOMA, EPIDERMOID CARCINOMA, TRACHEA: PAPILLO) was “active; positive”; the carcinogen call (Species: HAMSTER, Strain/Sex: SYRIAN/MALE, Route: SUBCUTANEOUS, Dose: 0.63-5 MG/KG IN OLIVE OIL 1/WK FOR LIFE, Tumor Site: Type of Lesion: NASAL CAVITY: PAPILLOMA, EPIDERMOID CARCINOMA, ADENOCARCINOMA, LARYNX: PAPILLOMA, EPIDERMOID CARCINOMA, TRACHEA: PAPILLO, Tumor Site: Type of Lesion: NASAL CAVITY: PAPILLOMA, EPIDERMOID CARCINOMA, ADENOCARCINOMA, LARYNX: PAPILLOMA, EPIDERMOID CARCINOMA, TRACHEA: PAPILLO) was “active; positive”; the carcinogen call (Species: RAT, Route: INTRAVENOUS, Dose: 10.0 MG/KG 1/WK(MEAN TOTAL DOSE 0.25 G/KG), Tumor Site: Type of Lesion: ESOPHAGUS) is “active; positive”; the carcinogen call (Species: RAT, Route: ORAL, Dose: 1.30, 2.50 MG/KG 7/WK (MEAN TOTAL DOSE 0.23; 0.42 G/KG), Dose: 1.30, 2.50 MG/KG 7/WK (MEAN TOTAL DOSE 0.23; 0.42 G/KG), Tumor Site: Type of Lesion: ESOPHAGUS) is “active; positive”.
Regarding `Cn1c2ccccc2c2ccccc21`, the carcinogen call reads like this: (Species: MOUSE, Strain/Sex: CD-1/FEMALE, Route: INTRAPERITONEAL, Dose: 0, 1.75 UMOL/MOUSE (TOTAL DOSE) ADMINISTERED DURING DAYS 1, 8, AND 15 OF LIFE (STUDY DURATION: 52 WK)) “inactive; negative”; (Species: MOUSE, Strain/Sex: CD-1/MALE, Route: INTRAPERITONEAL, Dose: 0, 1.75 UMOL/MOUSE (TOTAL DOSE) ADMINISTERED DURING DAYS 1, 8, AND 15 OF LIFE (STUDY DURATION: 52 WK)) “inactive; negative”.
In the case of `ClC(Cl)(Cl)c1ccccc1`, the carcinogen call (Species: MOUSE, Strain/Sex: ICR/FEMALE, Route: GAVAGE, Dose: 0, 0.0315, 0.125, 0.5, 2 µL IN STERILIZED SESAME OIL 2/WK FOR 25 WK (STUDY DURATION: 18 MO), Dose: 0, 0.0315, 0.125, 0.5, 2 µL IN STERILIZED SESAME OIL 2/WK FOR 25 WK (STUDY DURATION: 18 MO), Tumor Site: Type of Lesion: FORESTOMACH: SQUAMOUS CELL CARCINOMA, LUNG: ADENOCARCINOMA OR ADENOMA, HEMATOPOIETIC SYSTEM: TUMORS, Tumor Site: Type of Lesion: FORESTOMACH: SQUAMOUS CELL CARCINOMA, LUNG: ADENOCARCINOMA OR ADENOMA, HEMATOPOIETIC SYSTEM: TUMORS) is “active; positive”.
With `O[C@H]1[C@@H]2O[C@@H]2c2c(ccc3cc4ccc5ccccc5c4nc23)[C@@H]1O`, the carcinogen call is, setting by setting: (Species: MOUSE, Strain/Sex: CD-1/FEMALE, Route: INTRAPERITONEAL, Dose: 0, 175 NMOL (TOTAL DOSE) ADMINISTERED AS 1/7 OF DOSE WITHIN 24 HR AFTER BIRTH, 2/7 OF DOSE AT 8 D OLD, 4/7 OF DOSE AT 15, Tumor Site: Type of Lesion: LUNG: TUMOR) “active; positive”; (Species: MOUSE, Strain/Sex: CD-1/MALE, Route: INTRAPERITONEAL, Dose: 0, 175 NMOL (TOTAL DOSE) ADMINISTERED AS 1/7 OF DOSE WITHIN 24 HR AFTER BIRTH, 2/7 OF DOSE AT 8 D OLD, 4/7 OF DOSE AT 15, Tumor Site: Type of Lesion: LIVER: TUMOR) “active; positive”.
For `CC(C)=CCC/C(C)=C/C=O`, the carcinogen call reads like this: (Species: MOUSE, Strain/Sex: B3C3F1/FEMALE (50), Route: ORAL, Dose: 0, 500, 1000, 2000 PPM IN MICROCAPSULES IN THE DIET FOR 2 YR (STUDY DURATION: 2 YR), Dose: 0, 500, 1000, 2000 PPM IN MICROCAPSULES IN THE DIET FOR 2 YR (STUDY DURATION: 2 YR), Tumor Site: Type of Lesion: LYMPHATIC SYSTEM: MALIGNANT LYMPHOMA) “equivocal”; (Species: MOUSE, Strain/Sex: B6C3F1/MALE (50), Route: ORAL, Dose: 0, 500, 1000, 2000 PPM IN MICROCAPSULES IN THE DIET FOR 2 YR (STUDY DURATION: 2 YR), Dose: 0, 500, 1000, 2000 PPM IN MICROCAPSULES IN THE DIET FOR 2 YR (STUDY DURATION: 2 YR)) “inactive; negative”; (Species: RAT, Strain/Sex: F344/FEMALE, Route: ORAL, Dose: 0, 1000, 2000, 4000 PPM IN MICROCAPSULES IN THE DIET FOR 2 YR (STUDY DURATION: 2 YR), Dose: 0, 1000, 2000, 4000 PPM IN MICROCAPSULES IN THE DIET FOR 2 YR (STUDY DURATION: 2 YR)) “inactive; negative”; (Species: RAT, Strain/Sex: F344/MALE, Route: ORAL, Dose: 0, 1000, 2000, 4000 PPM IN MICROCAPSULES IN THE DIET FOR 2 YR (STUDY DURATION: 2 YR), Dose: 0, 1000, 2000, 4000 PPM IN MICROCAPSULES IN THE DIET FOR 2 YR (STUDY DURATION: 2 YR)) “inactive; negative”.
For `Cc1ccccc1`, the carcinogen call runs as follows: (Species: MOUSE, Strain/Sex: B6C3F1/FEMALE, Route: INHALATION, Dose: 0, 120, 600, 1200 PPM 6.5 HR/D 5 D/WK FOR 103 WK (STUDY DURATION: 104 WK), Dose: 0, 120, 600, 1200 PPM 6.5 HR/D 5 D/WK FOR 103 WK (STUDY DURATION: 104 WK)) “inactive; negative”; (Species: MOUSE, Strain/Sex: B6C3F1/MALE, Route: INHALATION, Dose: 0, 120, 600, 1200 PPM 6.5 HR/D 5 D/WK FOR 103 WK (STUDY DURATION: 104 WK), Dose: 0, 120, 600, 1200 PPM 6.5 HR/D 5 D/WK FOR 103 WK (STUDY DURATION: 104 WK)) “inactive; negative”; (Species: RAT, Strain/Sex: F344/FEMALE, Route: INHALATION, Dose: 0, 600, 1200 PPM 6.5 HR/D 5 D/WK FOR 103 WK (STUDY DURATION: 104 WK), Dose: 0, 600, 1200 PPM 6.5 HR/D 5 D/WK FOR 103 WK (STUDY DURATION: 104 WK)) “inactive; negative”; (Species: RAT, Strain/Sex: F344/MALE, Route: INHALATION, Dose: 0, 600, 1200 PPM 6.5 HR/D 5 D/WK FOR 103 WK (STUDY DURATION: 104 WK), Dose: 0, 600, 1200 PPM 6.5 HR/D 5 D/WK FOR 103 WK (STUDY DURATION: 104 WK)) “inactive; negative”; (Species: RAT, Strain/Sex: STRAIN-CD/MALE, Route: INTRAGASTRIC, Dose: 0, 500 MG/KG IN OLIVE OIL 1/D 4-5 D/WK FOR 104 WK (STUDY DURATION: 104 WK)) “inactive; negative”.
